The text below walks through data of PMC5225203, “Multiparameter toxicity assessment of novel DOPO-derived organophosphorus flame retardants” (Archives of Toxicology, 2016).

The structures appear in SMILES notation.

Data set [1] deals with ARE-dependent luciferase expression in KeratinoSens cells. The experiment in a line: KeratinoSens skin sensitization assay. In kind it is cell-based. As to conditions: for cell viability (PrestoBlue) in KeratinoSens cells / ARE-dependent luciferase expression: 48 h; for skin sensitizer classification / ARE-dependent luciferase expression: KeratinoSens. The protocol: Generation of the stable KeratinoSens™ cell line was previously described in detail (Emter et al. [2010]). KeratinoSens™ cells were maintained in DMEM containing glutamax (Gibco/Invitrogen), 9 % FCS, and 0.5 mg/mL G418. For the experiments, KeratinoSens™ cells were seeded onto 96-well plates at a density of 10,000 cells per well in 125 µL medium without G418. After 24 h, the medium was replaced with 200 µL DMEM containing 1 % FCS and the test compounds. After a 2-day incubation period at 37 °C in an atmosphere containing 5 % CO2, the cells were washed once with PBS and a resazurin reduction assay (PrestoBlue®) was carried out in order to compare the viability of the differently treated groups. Fluorescence intensity was measured at 550 nmex and 590 nmem. After another washing step with PBS, cell lysis was performed using 20 µL/well passive lysis buffer (Promega) for 20 min at room temperature. Luciferase activity was measured by applying 50 µL luciferase substrate automatically to each well and detecting the resulting luminescence. Compounds were considered as skin sensitizers when a statistically significant induction of luciferase activity above a defined threshold of ≥1.5 in the absence of impaired cell viability was observed (Emter et al. [2010]; Natsch et al. [2011]).

The test system of data set [2] is fully differentiated LUHMES cells. As to the kind of experiment: Toxicity in mature central nervous system neurons (neurite mass, viability). In kind it is cell-based, human. As to conditions: 48 h; for concentration evoking degeneration of neurites: day 6–8, all assays; for influence on neurites / viability: concentrations as high as 100 µM. The protocol: LUHMES cells are conditionally immortalized human fetal ventral mesencephalic neuronal precursor cells that were obtained by clonal selection. Differentiated LUHMES cells show a clear dopaminergic phenotype, which was described in detail previously (Schildknecht et al. [2009]; Scholz et al. [2011]). Cells were propagated in advanced DMEM/F12 (Gibco/Invitrogen, Darmstadt, Germany) with 1 × N2 supplement (Invitrogen), 2 mM L-glutamine (Gibco), and 40 ng/mL recombinant bFGF (R&D Systems, Minneapolis, MN, USA). The differentiation process was initiated by adding differentiation medium consisting of advanced DMEM/F12, 1 × N2 supplement, 2 mM L-glutamine, 1 mM dibutyryl cAMP (Sigma), 1 µg/mL tetracycline (Sigma), and 2 ng/mL recombinant human GDNF (R + D Systems). After 2 days, cells were trypsinized, collected in advanced DMEM/F12 medium, and seeded onto 24-well plates at a density of 160,000 cells/cm^2. The differentiation process was continued for 4 days. Fully differentiated LUHMES cells were treated with the tested flame retardants for 48 h from day 6 to 8 of differentiation. For visualization of morphology, cells were fixed with 4 % paraformaldehyde for 20 min at room temperature, permeabilized with 0.2 % Triton X-100, washed with PBS, blocked with 1 % BSA (Calbiochem, San Diego, CA, USA) in PBS for 1 h, and stained with a polyclonal anti-β-III-tubulin antibody (Sigma) in 1 % BSA/PBS at 4 °C overnight. After washing, secondary antibodies (anti-mouse-IgG, Alexa 488, Molecular Probes; 1:1000) in 1 % BSA/PBS were added for 1 h, after which nuclei were stained with Hoechst dye H-33342 (1 µg/mL) for 20 min. For visualization, an Olympus IX 81 microscope (Hamburg, Germany) equipped with an F-view CCD camera was used. For quantitative evaluation of the neurite area, β-III-tubulin-stained cells were analyzed using an automated microplate-reading microscope (Array-Scan II® HCS Reader, Cellomics, Pittsburgh, PA, USA) equipped with a Hamamatsu ORCA-ER camera (1024 × 1024 resolution; run at 2 × 2 binning). Nuclei were identified according to their intensity, size, area, and shape. A virtual area corresponding to the cell soma was defined around each nucleus. The total β-III-tubulin pixel area per field minus the soma areas in that field was defined as neurite mass.
[% of total activity ± SD]
[% of total activity± SD]
Suppl. Fig. 7. Toxicity of flame retar dants in central human neurons. Mature human dopaminergic neurons (LUHMES) were treated w ith the different flame retardants in the concentrations as indicated for 48 h from day 6 to day 8 of differentiation. a Cell viability was determined by the resazurin reduction and by the lact ate dehydrogenase release a ssays. b Intracellular levels of ATP and of reduced glutathione (GSH) were measured in parallel.

Data set [3] concerns differentiated LUHMES cells. In kind it is cell-based, human. As to conditions: at high concentrations, correlated with neurite degeneration. Here is the method: Suppl. Fig. 10. Migration of mitochondria in neurites. Mitochondrial migration was detected in fully differentiated (day 6 of differentiation, DoD6) mixed LUHMES cultures consisting of 3% eGFP/mito-tRFP-overexpressing LUHMES in 97% unlabeled LUHMES in order to allow tracking of mitochondria in single neurites in an environment of normal LUHMES cell density (Schildknecht et al. 2013, ALTEX 30(4):427-444). Single cell time lapse imaging was performed for a period of 90 s in intervals of 3 s with a Zeiss LSM 780 inverted fluorescence microscope YOKOGAWA CSU-XI spinning disk system using an EVOLVE camera (Carl Zeiss Group, Oberkochen, Germany) equipped with a 5% CO2 /37°C controlled chamber and a 40 x 1.3 NA oil objective. For image analysis, kymographs (graphical representation of spatial position over time) based on the data obtained from single cell time lapse experiments were created using ImageJ Software (NIH, Bethesda, USA). The neurite was manually defined by the segmented line tool. To calculate mitochondrial velocity, diagonal lines were drawn for each moving mitochondrium in the kymograph and analysed by calculating the slope with the macro-plugin Kymo Line ROI, generated by Felix Schöneberger, Bioimaging Center (BIC), University of Konstanz, Germany.
(1 picture or pasted object on this page, not shown here)

For data set [4], the system named is neuronal and non-neuronal cell models. The experiment in a line: Synopsis of all in vitro assays applied in this work. The format is cell-based, human. The conditions noted are these: for IC50: Homo sapiens, read-out: average IC50 values; for concentration with cell type-independent cytotoxic properties: all cellular in vitro models; for cytotoxic effects: at concentrations higher than 100 µM. Here is the method:
IC50 values are defined by the concentration of the flame retardant investigated where the response was reduced by half. Log-transformed flame retardant concentration values and the respective response data were fitted to a four-parameter logistic equation: y=A+B-A/1+(x/C)^D The percent inhibition response data are represented by y; B = maximum of y; A = minimum of y; x = flame retardant concentration; C = IC50; D = Hill slope factor. The IC50 values were calculated from these sigmoidal dose–response curves utilizing Prism 5.0 (GraphPad, San Diego, CA, USA) software.

As to `O=P1(OCCOP2(=O)Oc3ccccc3-c3ccccc32)Oc2ccccc2-c2ccccc21` (stereo not shown) [EG-DOPO, 6,6′-(ethane-1,2-diylbis(oxy))bis(6H-dibenzo[c,e][1,2]oxaphosphinine-6-oxide)], in data set [1], the “cell viability (PrestoBlue) in KeratinoSens cells” value (shortened to “cell viability (PrestoBlue)”) is on record as “decline in cell viability”, the skin sensitizer classification entry is “No specific effects” and the ARE-dependent luciferase expression result is listed as “increase in ARE-dependent luciferase expression”. In data set [2], the “concentration evoking degeneration of neurites” value was more than 10 µM. Further, in data set [3], the mitochondrial velocity entry is given as “influenced mitochondrial velocity”. Besides, in data set [4], the IC50 was 20 to 100 µM and the “concentration with cell type-independent cytotoxic properties” value is reported as more than 10 µM.
As to `O=P1(NCCNP2(=O)Oc3ccccc3-c3ccccc32)Oc2ccccc2-c2ccccc21` (stereo not shown) [EDA-DOPO, 6,6′-(ethane-1,2-diylbis(azanediyl))bis(6H-dibenzo[c,e][1,2]oxaphosphinine-6-oxide)], in data set [1], the skin sensitizer classification result is on record as “No specific effects” and the ARE-dependent luciferase expression entry was “neither induced luciferase activity”. Also, in data set [2], the “influence on neurites / viability” value is listed as “no influence”. In data set [4] (all assays utilized), the harmful effects result is recorded as “no harmful effects”. In data set [4], the cytotoxic effects result was “no comparable effects”.
Consider `O=P1(NCCOP2(=O)Oc3ccccc3-c3ccccc32)Oc2ccccc2-c2ccccc21` (stereo not shown) [ETA-DOPO, 6-(2-((6-oxido-6H-dibenzo[c,e][1,2]oxaphosphinin-6-yl)amino)ethoxy)-6H-dibenzo[c,e][1,2]oxaphosphinine 6-oxide], for which, in data set [1], the “cell viability (PrestoBlue)” value is “decline in cell viability”, the skin sensitizer classification entry is “No specific effects” and the ARE-dependent luciferase expression entry was “increase in ARE-dependent luciferase expression”. In data set [2], the “concentration evoking degeneration of neurites” value is on record as more than 10 µM. For the same molecule, the mitochondrial velocity entry in data set [3] is on record as “influenced mitochondrial velocity”. For the same molecule, in data set [4], the IC50 is 20 to 100 µM and the “concentration with cell type-independent cytotoxic properties” value is reported as more than 10 µM.
Regarding `O=[PH]1Oc2ccccc2-c2ccccc21` (stereo not shown) [DOPO, 9,10-dihydro-9-oxa-10-phosphaphenanthrene-10-oxide], in data set [1], the skin sensitizer classification entry is on record as “No specific effects” and the ARE-dependent luciferase expression result is given as “neither induced luciferase activity”. For the same molecule, the “influence on neurites / viability” value in data set [2] was “no influence”. Further, in data set [4], the cytotoxic effects entry is reported as “no comparable effects”. In data set [4] (concentrations up to 400 µM), the “influence on all parameters investigated” value was “no influence”.
`Brc1ccc(Oc2cc(Br)c(Br)cc2Br)c(Br)c1` [PBDE-99, reference compound]: the “cell viability (PrestoBlue)” value in data set [1] is “absence of significant cell death”. Besides, the “increase in ARE-dependent luciferase expression” value in data set [1] (at a concentration of 3 µM, in the absence of significant cell death) was “ca. twofold”. The “concentration evoking degeneration of neurites” value in data set [2] is more than 10 µM. Moreover, the mitochondrial velocity entry in data set [3] is given as “influenced mitochondrial velocity”. For the same molecule, in data set [4] (abstract), the “concentration with distinct neuro-selective cytotoxicity” value is on record as not below 10 µM. Also, in data set [4] (central and peripheral neurons), the “concentration detrimentally influencing central and peripheral neurons” value was more than 10 µM. Further, in data set [4] (macrophages, lung epithelial cells, keratinocytes, concentrations as high as 400 µM), the “toxicity in non-neuronal models” value is “no significant toxicity”.

A word on the IC50: it is the concentration that gives 50% inhibition.
